Test results as given in patent US20170042908A1, “METHOD FOR TREATING GEOGRAPHIC ATROPHY ASSOCIATED WITH AGE-RELATED MACULAR DEGENERATION” (NATIONAL UNIVERSITY CORPORATION KAGAWA UNIVERSITY, priority 2014, published 2017).

Legend:
geographic atrophy (GA) = assay: Clinical study: GA area by fundus autofluorescence imaging (RegionFinder); format: in vivo, human
Procedure: (§1) A prospective, randomized, placebo-controlled study was performed for forty-eight eyes with GA which had not a recurrence of exudative AND for at least 6 months after receiving the treatment for exudative AND. The eyes of the treatment group received two drops of 0.15% isopropyl unoprostone (IU) three times a day for 54 weeks. Participants were examined before starting the study (baseline) and at 4, 8, 12, 24, 36, and 54 weeks to measure GA area, the change in GA, the GA enlargement rate and the logarithm of the minimum angle of resolution (logMAR) visual acuity. The placebo group eyes received the vehicle 3 times a day.
(§2) Two drops of the test drug or the placebo (vehicle) were administered at 5 minute intervals to the eyes three times a day, i.e. morning, afternoon, and night.
(§3) Study duration: 54 weeks.
(§4) The participants were examined to measure the following items at enrollment (baseline) and at 4, 8, 12, 24, 36 and 54 weeks.
Fundus autofluorescence images were obtained using BluePeak™ blue laser fundus autofluorescence (FAF) and confocal scanning laser ophthalmoscopy reflectance (OSLO). Hypofluorescent areas that reflect decreased autofluorescence were defined as GA areas. In detail, digital images obtained as above were calibrated and analyzed using RegionFinder™ software (version 2.4, Heidelberg Engineering, Germany) to define and quantify GA areas. Obtaining the fundus autofluorescence images, analyzing the obtained images and defining GA areas were performed according to the manuals of the equipment and software.
At each measurement time, the GA size, the change in GA area from the baseline and the GA enlargement rate from the baseline were determined.

[1] = Clinical study: logMAR visual acuity; format: in vivo, human; conditions: U group
Procedure: as §1, §2, §3, §4
Visual acuity was examined and the obtained value was converted the logarithm of the minimum angle of resolution (LogMar) to give logMar visual acuity.

Structure (SMILES): CCCCCCCC(=O)CC[C@@H]1[C@@H](C/C=C\CCCC(=O)OC(C)C)[C@@H](O)C[C@H]1O [isopropyl unoprostone, 13,14-dihydro-15-keto-20-ethyl F2α isopropyl ester]
- mean change in GA area at week 54 (geographic atrophy (GA); U group (24 eyes), 0.15% eye drops two drops three times a day, 54 weeks, change from baseline (baseline 2.71±2.03 mm^2), p<0.001 vs placebo): 0.44±0.39 mm^2
- enlargement of GA (conclusion) (geographic atrophy (GA); eye drops, 54 weeks, vs placebo): could suppress the enlargement of GA
- change in geographic atrophy (GA) area (conclusion) (geographic atrophy (GA); patients who developed GA after treatment for exudative AMD, eye drops): statistically significant suppression
- GA enlargement rate at 54 week (geographic atrophy (GA); representative U group case, person with typical AMD, left eye, 0.15% eye drops, two drops three times a day, vs baseline): 118%
- GA area, difference between U and P groups (geographic atrophy (GA); throughout the study): no statistically significant difference
- logMAR visual acuity, trend over time ([1]; over the study, no statistically significant difference over the baseline): tended to improve over time
- logMAR visual acuity at week 4 ([1]; week 4, baseline 0.39±0.39, p=0.62 vs P group): 0.33±0.34
- logMAR visual acuity at week 54 ([1]; week 54, baseline 0.39±0.39, p=0.27 vs P group): 0.37±0.34
